Laboratory results as given in patent EP0831877B1, “METABOLIC EFFECTS OF CERTAIN GLUTATHIONE ANALOGS” (TELIK, INC., priority 1995, dated 1996).
Like-named read-outs stand apart in the source and are kept apart here. Values belong to the compound of their own block, whether it stands above or below them.

Assays:
[1] = system: HT-29 (human colon adenocarcinoma) cells; assay: modified clonogenic assay, potentiation of chlorambucil cytotoxicity; assay type: cell-based; conditions: chlorambucil, mean ±S.D. of 2-3 experiments
Method: HT-29 (human colon adenocarcinoma) cells were obtained from Dr. Roberto Ceriani (Cancer Research Fund of Contra Costa County, Walnut Creek, CA) and were used in log phase of growth unless otherwise specified. Chlorambucil (CMB) was obtained from Sigma (St. Louis, MO) and was dissolved in 100% ethanol. All GST inhibitors were dissolved in ethanol, DMSO, or water just prior to use. The same amount of solvent added to culture medium served as the vehicle control.
In a modified clonogenic assay for cytotoxicity, cells were suspended at 2 x 10^5 cells/ml in serum-free medium in the presence of vehicle or inhibitor. […] Cells were incubated for 2 hours, then varying doses of CMB were added. At the end of a second 2-hour incubation, cells were diluted to 7.5-10 x 10^3/ml in serum-containing medium and plated in quadruplicate at 200 µl/well in Microtest III microtiter plates.
Plates were incubated for 6 days and assayed by a modified methylene blue method. Briefly, cells were fixed with 1.25% glutaraldehyde in PBS then stained with 0.05% methylene blue in distilled water. Plates were washed several times in distilled water to remove unretained dye and retained dye was resolubilized in 0.03 N HCl. Plates were read at 650 nm in a Molecular Devices Vmax plate reader (Molecular Devices, Redwood City, CA). […] A dose modification factor (DMF), a measure of potentiation of cytotoxicity, was calculated for each inhibitor by dividing the IC50 value of CMB without inhibitor treatment by the IC50 value for CMB with inhibitor treatment.

Human GST P1-1 = Human GST P1-1 (Homo sapiens, UniProt P09211); assay: inhibition of GST isoenzyme P1-1 (Ki); assay type: biochemical; conditions: for Rank order: rank of Ki for Human GST P1-1
GST M2-2 = molecular target: T1, GST M2-2 (Homo sapiens, UniProt P28161); assay: inhibition of GST isoenzyme M2-2 (Ki); assay type: biochemical; conditions: determined on unesterified form
T1 sequence (P28161 1-218): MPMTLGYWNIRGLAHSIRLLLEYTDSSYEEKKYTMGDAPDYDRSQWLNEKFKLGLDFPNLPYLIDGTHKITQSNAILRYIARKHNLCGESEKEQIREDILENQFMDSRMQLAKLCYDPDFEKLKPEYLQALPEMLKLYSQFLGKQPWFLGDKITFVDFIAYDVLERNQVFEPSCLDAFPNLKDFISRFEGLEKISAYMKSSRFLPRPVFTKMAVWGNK

bone marrow GM-CFU [2] = assay: stimulation of bone marrow GM-CFU after administration to mice; assay type: in vivo, B6D2F1 mice; conditions: bone marrow harvested 24 hours after administering
Method: In an illustrative assay three B6D2F1 mice were treated with various doses of benzyl PG intraperitoneally.
Mice in the control group were injected with water or saline. Bone marrow cells were harvested 24 hours after drug treatment and added to alpha minimum essential medium (alpha MEM) supplemented with methylcellulose (0.8% w/v), fetal bovine serum (20% v/v), deionized BSA (1% w/v), Pokeweed mitogen-stimulated spleen-cell conditioned medium (PWM-SCCM)^1 (10% v/v) and gentamycin (50 Tg/ml). One ml aliquots were plated (four replicate plates) and incubated for seven days at 37 °C. […] Spleens were removed aseptically from four male B6D2F1 mice enforced through a 200 Tm wire mesh screen to obtain a single cell suspension. Ten ml of the suspension (2-4 X 10^7 cell/ml was added to 90 ml alpha-MEM supplemented with 1% deionized BSA, 50 Tg/ml gentamicin, 0.3% freshly reconstituted pokeweed antigen, 10 µM 2-mercaptoethanol. The mixture was incubated for 5 days at […] in a 5% CO2 atmosphere and the result-ing conditioned medium was centrifuged at 800g for ten minutes and filtered through a 0.22 Tm filter. Aliquots were kept frozen at […] until use.
Bone marrow was harvested 24 hours after administering the compounds and GM-CFU levels measured as described above.

GST A1-1 = molecular target: T2, GST A1-1 (Homo sapiens, UniProt P08263); assay: inhibition of GST isoenzyme A1-1 (Ki); assay type: biochemical
T2 sequence (P08263 1-222): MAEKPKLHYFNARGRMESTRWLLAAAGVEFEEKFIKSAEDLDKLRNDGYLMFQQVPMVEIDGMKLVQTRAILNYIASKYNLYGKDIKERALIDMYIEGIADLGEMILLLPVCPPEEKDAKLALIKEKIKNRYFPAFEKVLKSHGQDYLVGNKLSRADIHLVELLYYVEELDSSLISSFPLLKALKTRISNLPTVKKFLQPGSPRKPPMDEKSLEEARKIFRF

GST M1a-1a = molecular target: T3, GST M1a-1a (Homo sapiens, UniProt P09488); assay: inhibition of GST isoenzyme M1a-1a (Ki); assay type: biochemical
T3 sequence (P09488 1-218): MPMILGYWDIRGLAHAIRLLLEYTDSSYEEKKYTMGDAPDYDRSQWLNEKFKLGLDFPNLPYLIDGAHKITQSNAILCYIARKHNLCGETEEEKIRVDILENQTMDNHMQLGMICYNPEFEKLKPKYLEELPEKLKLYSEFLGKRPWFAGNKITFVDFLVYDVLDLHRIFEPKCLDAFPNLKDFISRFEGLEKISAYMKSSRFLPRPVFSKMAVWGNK

bone marrow GM-CFU [3] = assay: 5-fluorouracil-induced GM-CFU suppression in mice
Method: The control group was not treated with either drug. Bone marrows were harvested and GM-CFUs were determined 24 hours after the final injection.
Values are the mean ± SE of three mice per point.

[4] = determined on unesterified form

Sequence of Human GST P1-1 (P09211 2-210 limits assumed): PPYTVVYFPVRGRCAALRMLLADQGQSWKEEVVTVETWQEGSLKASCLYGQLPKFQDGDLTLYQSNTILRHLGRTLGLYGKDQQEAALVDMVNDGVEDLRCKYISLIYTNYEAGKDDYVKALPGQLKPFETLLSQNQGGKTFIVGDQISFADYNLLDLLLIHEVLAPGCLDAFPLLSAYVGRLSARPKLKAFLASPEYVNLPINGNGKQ

Compound: CCCCCCSC[C@H](NC(=O)CC[C@H](N)C(=O)OCC)C(=O)NC(C(=O)OCC)c1ccccc1 (stereo partly shown) [γE-C(Hx)-ϕG diethyl ester, γE-C(Hx)-ϕG]
- DMF (dose modification factor), Diethyl ester ([1]; HT-29, dose tested 12.5 µM): 1.27±0.02
- DMF of DEE ([1]; diethyl ester): 1.272

- Ki (Human GST P1-1; [4]): > 1000 µM
- Ki (GST M2-2): > 1000 µM
- Ki (GST A1-1; [4]): > 1000 µM
- Ki (GST M1a-1a; [4]): > 1000 µM
Compound: γE-C(Bz) (S+)-fA [TER317]
- effect on GM-CFU, analogs of TER199 (Figure 8) (bone marrow GM-CFU [2]): inactive

Compound: CCCCCCCCSC[C@H](NC(=O)CC[C@H](N)C(=O)OCC)C(=O)NCC(=O)OCC [TER143, γE-C(octyl)-G]
- Ki (Human GST P1-1): 1.9 µM
- Ki (GST A1-1): 0.27 µM
- Ki (GST M1a-1a): 1.2 µM

- Rank order (Human GST P1-1): 3
Compound: γE-C(naphthyl)-G [TER211]

- specificity for GST P1-1 (Human GST P1-1; among TER117, TER102, TER211, TER143): reasonably specific
- Rank order (Human GST P1-1): 2
Compound: CCCCCCSC[C@H](NC(=O)CC[C@H](N)C(=O)O)C(=O)N[C@@H](C(=O)O)c1ccccc1 [TER102, γE-C(hexyl)-ϕG]
- DMF (dose modification factor), Parent Compound ([1]; HT-29, dose tested 100 µM): 1.1±0.02

- Rank order (Human GST P1-1): 4
Compound: CCCCCCCCSC[C@H](NC(=O)CC[C@H](N)C(=O)O)C(=O)NCC(=O)O [TER143, γE-C(octyl)-G]

- GM-CFU (bone marrow GM-CFU [3]; 75 mg/kg 5-FU IP alone): 15 % of control
- GM-CFU (bone marrow GM-CFU [3]; 5-FU 75 mg/kg i.p. alone, harvest 48 hours): 47 % of control
- GM-CFU (bone marrow GM-CFU [3]; 5-FU 150 mg/kg i.p. alone, harvest 48 hours): 8 % of control
- GM-CFU by day 4 after 5-FU administration (Figure 9b) (bone marrow GM-CFU [3]; 5-FU only): approximately equal to control
Compound: O=c1[nH]cc(F)c(=O)[nH]1 [5-FU, 5-fluorouracil, reference compound]
